Experimental findings from patent US20090148398A1, “Naturally Occurring Volatile Attractant” (priority 2007, published 2009) are described below.

“Also recorded” adds a separate entry of the source.

One test deals with fire ant workers. Description: Fire ant alarm response. The arrangement: species or system Solenopsis invicta. To be noted: in vivo. The protocol: Recently, the identity of a component of the fire ant alarm pheromone was determined to be 2-ethyl, 3,6-dimethyl pyrazine and the origin is the mandibular gland. […] In addition, 2-ethyl, 3,6-dimethyl pyrazine is commercially available as a mixture with the related compound, 2-ethyl, 3,5-dimethyl pyrazine.

The subject of another test is S. invicta workers. Description: Y-tube olfactometer attraction bioassay. Set-up: species or system Solenopsis invicta. To be noted: in vivo. An excerpt:
All ants used in these experiments were obtained from mature, queenright, monogyne Solenopsis invicta colonies excavated from a known monogyne site in Gainesville, Fla. The colonies were separated from the dirt and set up in the laboratory at least one month prior to the experiments. Laboratory colonies were maintained on a diet of crickets, water and 10% sucrose, and kept in plastic trays (83×53×13 cm) whose inner sides were painted with poly tetrafluoroethylene compositions (ADI Fluon, ICI Americas, Bayonne, NF) to prevent, escape of the ants. Based on the above, the attraction of S. invicta workers to various concentrations of the commercially available mixture of 2-ethyl, 3,5-dimethyl pyrazine and 2-ethyl, 3,6-dimethyl pyrazine was evaluated using a Y-tube olfactometer (FIG. 5). The olfactometer is composed of two 24/40 ground glass joints 14 each ring sealed to one of the arms 24 of an approximately 5 cm Y-tube 26 such that about 1 cm of each Y-tube extends through the male half of one of the ground glass joints. An approximately 5 cm piece of about 0.6 cm tubing is ring sealed about 1 cm into the female half of the ground glass joints. […] The number of ants entering the chamber with either the control or the treatment during the 3 min were counted and recorded. […]

For the molecule `CCc1ncc(C)nc1C` [2-ethyl, 3,5-dimethyl pyrazine], the “alarm response of fire ant workers” value in the test with fire ant workers is given as “elicit an alarm response”.

Turning to `CCc1nc(C)cnc1C` [2-ethyl, 3,6-dimethyl pyrazine], in the test on S. invicta workers, the “attraction of fire ant workers (conclusion of olfactometer experiment)” value is “attracts fire ant workers through space”. In addition, in the test on fire ant workers, the “alarm response of fire ant workers” value was “elicited the full range of previously reported fire ant alarm behaviors; also recorded: fire ant workers responded better”.
